Results on 14 compounds are retold here after patent publication US4705799A, “Aminomethyl oxooxazolidinyl benzenes useful as antibacterial agents” (E. I. Du Pont de Nemours and Company, priority 1985, dated 1987).

Assay [1] relates to Staphylococcus aureus. In words: In vivo efficacy of orally administered compounds in mouse intraperitoneal infections. The settings on record: mouse i.p. Staphylococcus aureus infection, oral, dosed at infection and 4 h post-infection, 7 days; for ED50: Staphylococcus aureus, po, 168 h, read-out: ED50 (50 percent effective dose); for ED50 (50 percent effective dose): 10080 min. The method, then:
(§1) Determinations of in vivo efficacy are performed by inoculating mice intraperitoneally with cultures of the infecting organism diluted to produce 90-100% mortality in control animals within twenty-four hours. The diluents used were trypticase soy broth for E. coli and 5% aqueous hog gastric mucin for Staphylococcus aureus infections. The compounds are dissolved or suspended in 0.25% aqueous Methocel® (Methocel®: Hydroxypropyl Methylcellulose E15 Premium, Dow Chemical Company) for oral administration or sterile distilled water containing 5% dimethylsulfoxide (Fisher Scientific Company, Fairlawn, N.J.) for subcutaneous administration. The mice are dosed at the time of infection and again at four hours post-infection. Mortality is recorded daily until test termination seven days post infection and the 50 percent effective dose, ED50, is calculated by the Reed-Muench method (Reed, L. G. and Muench, H., "A simple method of estimating fifty percent end points," American Journal of Hygiene, 27, 493-497 (1938).

For assay [2], the system named is Escherichia coli. The description is as above. The settings on record: 168 h; mouse i.p. Escherichia coli infection; oral; dosed at infection and 4 h post-infection; 7 days; read-out: ED50 (50 percent effective dose). The method, then: as §1
Assay [3] relates to Escherichia coli. As to the kind of experiment: In vitro broth dilution minimal inhibitory concentration (standard microdilution method). Type of assay: cell-based. The settings on record: Escherichia coli, Mueller-Hinton broth, 24-hour; for MIC: read-out: Microdilution Broth MIC. In general terms: Dilution methods test growth across graded concentrations, often in twofold steps.

Assay [4] relates to Staphylococcus epidermidis. The description is as above. Type of assay: cell-based. The settings on record: Mueller-Hinton broth, 24-hour; for MIC: 24 h, read-out: Microdilution Broth MIC.
In assay [5] the test system is Staphylococcus aureus. In words: In vivo efficacy of compounds administered subcutaneously in mouse intraperitoneal infections. The settings on record: mouse i.p. Staphylococcus aureus infection, subcutaneous, dosed at infection and 4 h post-infection, 7 days; for ED50: sc, 168 h, read-out: ED50 (50 percent effective dose); for ED50 (50 percent effective dose): 10080 min. Here is the method:
as §1

≈ marks a conversion by molar mass, not a printed value.

Take `CS(=O)(=O)c1ccc(N2CC(CN=[N+]=[N-])OC2=O)cc1` (single isomer, unassigned) [Example 2, (l)-5-Azidomethyl-3-[4-(methylsulfonyl)phenyl]-2-oxazolidinone]: the ED50 (usually the dose at which the effect has come halfway, by size or by number of responders) in the assay on Staphylococcus aureus [1] was found to be 7.3 mg/kg; in the assay on Escherichia coli [2], 52.6 mg/kg. Further, the MIC (as a rule, the lowest concentration found to suppress growth) was > 100 µg/mL in the assay on Escherichia coli [3] and 6.3 µg/mL (≈ 21.3 µM) in assay [4].

`CC(=O)NCC1CN(c2ccc(CCCO)cc2)C(=O)O1` (centres unmarked) [Example 107]: the ED50 in the assay with Staphylococcus aureus [5] is 18.6 mg/kg; in the assay with Staphylococcus aureus [1] it was > 60 mg/kg. For the same compound, the MIC in the assay with Escherichia coli [3] is > 128 µg/mL; in assay [4], 2 µg/mL (≈ 6.84 µM).

`CC(=O)NCC1CN(c2ccc(C(F)(F)C(F)(F)F)cc2)C(=O)O1` (centres unmarked) [Example 108]: the results for the 50% effective dose (ED50) with Staphylococcus aureus [5] and with Staphylococcus aureus [1] were 20.4 mg/kg and 8.4 mg/kg, respectively. Also, the MIC was > 128 µg/mL in the assay on Escherichia coli [3] and 2 µg/mL (≈ 5.68 µM) in assay [4].

Consider `COC(=O)NCC1CN(c2ccc(S(=O)(=O)N(C)OC)cc2)C(=O)O1` (centres unmarked) [Example 116], for which the ED50 was 14.9 mg/kg with Staphylococcus aureus [5] and 25.9 mg/kg with Staphylococcus aureus [1]. Besides, the MIC in the assay with Escherichia coli [3] is > 200 µg/mL; in assay [4], 12.5 µg/mL (≈ 33.5 µM).

With `COC(=O)N(C)CC1CN(c2ccc(S(C)(=O)=O)cc2)C(=O)O1` (centres unmarked) [Example 128], the ED50 in the assay on Staphylococcus aureus [5] worked out at 33.6 mg/kg; with Staphylococcus aureus [1] it was 62 mg/kg. Besides, the MIC (with Escherichia coli [3]; in assay [4]) was > 200 µg/mL in each case.

Consider `CC(=O)NCC1CN(c2ccc(C(=O)C(Br)(Br)Br)cc2)C(=O)O1` (centres unmarked) [Example 140], for which the ED50 turned out to be 13.2 mg/kg in the assay with Staphylococcus aureus [5] and 6.6 mg/kg in the assay with Staphylococcus aureus [1]. Further, the MIC with Escherichia coli [3] amounted to 128 µg/mL (≈ 250 µM); in assay [4], 4 µg/mL (≈ 7.8 µM).

For the compound `CC(=O)NCC1CN(c2ccc(C(=O)C3CCCCC3)cc2)C(=O)O1` (centres unmarked) [Example 141], the figures for the ED50 with Staphylococcus aureus [5] and in the assay on Staphylococcus aureus [1] were 20.8 mg/kg and 40.2 mg/kg, respectively. Also, the MIC with Escherichia coli [3] was > 128 µg/mL; in assay [4], 8 µg/mL (≈ 23.2 µM).

With `CCc1cc(N2CC(CNC(C)=O)OC2=O)ccc1C(C)=O` (centres unmarked) [Example 143], the values for the ED50 in the assay with Staphylococcus aureus [5] and with Staphylococcus aureus [1] were 11.9 mg/kg and 20.8 mg/kg, respectively. Also, the values for the MIC (in the assay on Escherichia coli [3]; in assay [4]) were > 128 µg/mL and 16 µg/mL (≈ 52.6 µM), respectively.

Turning to `CC(=O)NCC1CN(c2ccc([S+]([O-])CCO)cc2)C(=O)O1` (centres unmarked) [Example 168, (l)-N-[3-[4-(2-Hydroxyethylsulfinyl)phenyl]-2-oxo-oxazolidin-5-ylmethyl]acetamide], the results for the “ED50 (50 percent effective dose)” value with Staphylococcus aureus [5] and in the assay on Staphylococcus aureus [1] were 24.3 mg/kg and 49.8 mg/kg, respectively. In addition, the “Microdilution Broth MIC” value is > 200.0 µg/mL in the assay with Escherichia coli [3] and 25.0 µg/mL in assay [4].

As for `CC(=O)NCC1CN(c2ccc([S+]([O-])CCO)cc2)C(=O)O1` (centres unmarked) [Example 169, (l)-N-[3-[4-(2-Hydroxyethylsulfinyl)phenyl]-2-oxo-oxazolidin-5-ylmethyl]acetamide], the “ED50 (50 percent effective dose)” value in the assay on Staphylococcus aureus [5] came out at 12.1 mg/kg; with Staphylococcus aureus [1] it was 99.1 mg/kg. Moreover, the results for the “Microdilution Broth MIC” value (in the assay with Escherichia coli [3]; in assay [4]) were 200.0 µg/mL and 50.0 µg/mL, respectively.

Regarding `CC(=O)c1ccc(N2CC(CNC(=O)CN)OC2=O)cc1` (centres unmarked) [Example 176], the figures for the ED50 in the assay on Staphylococcus aureus [5] and with Staphylococcus aureus [1] were 11.2 mg/kg and 30.9 mg/kg, respectively. In addition, the MIC was > 128 µg/mL in the assay with Escherichia coli [3] and 32 µg/mL (≈ 110 µM) in assay [4].

Consider `CC(=O)c1ccc(N2CC(CNC(=O)C(F)(F)F)OC2=O)cc1` (centres unmarked) [Example 178], for which the ED50 with Staphylococcus aureus [5] and in the assay with Staphylococcus aureus [1] was 31.6 mg/kg each time. The MIC in the assay on Escherichia coli [3] was > 128 µg/mL; in assay [4], 16 µg/mL (≈ 48.4 µM).

Take `CC(=O)NC[C@H]1CN(c2ccc([S@@+](C)[O-])cc2)C(=O)O1` [Example 180]: the ED50 amounted to 0.8 mg/kg in the assay on Staphylococcus aureus [5] and 2.5 mg/kg in the assay on Staphylococcus aureus [1]. Further, the MIC in the assay on Escherichia coli [3] stood at 128 µg/mL (≈ 432 µM); in assay [4] it was 4 µg/mL (≈ 13.5 µM).

For `CC(=O)NC[C@H]1CN(c2ccc([S@+](C)[O-])cc2)C(=O)O1` [Example 181, (S,S)-N-[3-[4-(Methylsulfinyl)phenyl]-2-oxo-5-oxazolidinylmethyl]acetamide], the ED50 was 1 mg/kg with Staphylococcus aureus [5] and 2.8 mg/kg in the assay with Staphylococcus aureus [1]. In addition, the results for the minimal inhibitory concentration (MIC) (in the assay on Escherichia coli [3]; in assay [4]) were > 128 µg/mL and 16 µg/mL (≈ 54 µM), respectively.
